Tests used:
[1] = for molar entropy: Vacuum adiabatic calorimetry; for mass density: Vibrating tube method; for vapor or sublimation pressure: Ebulliometric method (Recirculating still)
[2] = Molar enthalpy of transition or fusion; conditions: Crystal; Adiabatic calorimetry
[3] = molar heat capacity at saturation pressure; conditions: Crystal, Vacuum adiabatic calorimetry

c1ccc(-c2cccc3ccccc23)cc1 [1-phenylnaphthalene]
[1]
Conditions	Glass transition temperature [°C]	Triple point temperature [K]	mass density [kg/m3]	molar entropy [J/K/mol]	vapor or sublimation pressure [kPa]
5 K, Crystal	–	–	–	0.1746	–
10 K, Crystal	–	–	–	1.372	–
20 K, Crystal	–	–	–	7.849	–
30 K, Crystal	–	–	–	17.67	–
40 K, Crystal	–	–	–	28.64	–
50 K, Crystal	–	–	–	39.72	–
60 K, Crystal	–	–	–	50.49	–
70 K, Crystal	–	–	–	60.84	–
80 K, Crystal	–	–	–	70.76	–
90 K, Crystal	–	–	–	80.33	–
100 K, Crystal	–	–	–	89.56	–
120 K, Crystal	–	–	–	107.24	–
140 K, Crystal	–	–	–	124.19	–
160 K, Crystal	–	–	–	140.69	–
180 K, Crystal	–	–	–	156.93	–
200 K, Crystal	–	–	–	173.03	–
220 K, Crystal	–	–	–	189.11	–
240 K, Crystal	–	–	–	205.23	–
260 K, Crystal	–	–	–	221.4	–
280 K, Crystal	–	–	–	237.64	–
297.47 K, Crystal	–	–	–	251.92	–
297.47 K, Liquid	–	–	–	304.2	–
298.15 K, Liquid	–	–	–	304.91	–
300 K, Liquid	–	–	–	306.83	–
320 K, Liquid	–	–	–	327.32	–
323.14 K, Liquid	–	–	1082.7	–	–
340 K, Liquid	–	–	–	347.28	–
348.13 K, Liquid	–	–	1064.6	–	–
360 K, Liquid	–	–	–	366.78	–
373.12 K, Liquid	–	–	1045.5	–	–
375 K, Liquid	–	–	–	–	0.0218
380 K, Liquid	–	–	–	385.86	–
385 K, Liquid	–	–	–	–	0.0404
395 K, Liquid	–	–	–	–	0.0732
400 K, Liquid	–	–	–	404.57	–
405 K, Liquid	–	–	–	–	0.1265
415 K, Liquid	–	–	–	–	0.2126
420 K, Liquid	–	–	–	422.96	–
423.11 K, Liquid	–	–	1006.3	–	–
425.01 K, Liquid	–	–	–	–	0.3464
434.99 K, Liquid	–	–	–	–	0.549
440 K, Liquid	–	–	–	441.01	–
445 K, Liquid	–	–	–	–	0.849
448.11 K, Liquid	–	–	986.7	–	–
455 K, Liquid	–	–	–	–	1.283
460 K, Liquid	–	–	–	458.69	–
465 K, Liquid	–	–	–	–	1.896
466.36 K, Liquid	–	–	–	–	2
473.11 K, Liquid	–	–	967	–	–
475 K, Liquid	–	–	–	–	2.747
480 K, Liquid	–	–	–	476.01	3.281
485.69 K, Liquid	–	–	–	–	4.002
494.31 K, Liquid	–	–	–	–	5.336
498.11 K, Liquid	–	–	945	–	–
500 K, Liquid	–	–	–	493.05	–
507.13 K, Liquid	–	–	–	–	8.005
516.73 K, Liquid	–	–	–	–	10.67
520 K, Liquid	–	–	–	509.81	–
523.11 K, Liquid	–	–	921.4	–	–
524.52 K, Liquid	–	–	–	–	13.34
532.53 K, Liquid	–	–	–	–	16.64
539.27 K, Liquid	–	–	–	–	19.93
540 K, Liquid	–	–	–	526.33	–
548.1 K, Liquid	–	–	–	–	25.01
548.11 K, Liquid	–	–	–	–	25.02
557 K, Liquid	–	–	–	–	31.18
560 K, Liquid	–	–	–	542.62	–
565.96 K, Liquid	–	–	–	–	38.57
574.94 K, Liquid	–	–	–	–	47.36
580 K, Liquid	–	–	–	558.7	–
584.02 K, Liquid	–	–	–	–	57.82
593.13 K, Liquid	–	–	–	–	70.11
600 K, Liquid	–	–	–	574.57	–
602.33 K, Liquid	–	–	–	–	84.55
611.56 K, Liquid	–	–	–	–	101.34
620 K, Liquid	–	–	–	590.26	–
620.85 K, Liquid	–	–	–	–	120.8
630.2 K, Liquid	–	–	–	–	143.27
640 K, Liquid	–	–	–	605.78	–
650 K, Liquid	–	–	–	613.47	–
Crystal, Adiabatic calorimetry	–	297.47	–	–	–
Glass, Adiabatic calorimetry	-53	–	–	–	–

Conditions	Molar enthalpy of transition or fusion [kcal/mol]
[2]	3.716

[3]
Conditions	molar heat capacity [J/K/mol]
4.666 K	0.4324
5 K	0.5238
5.509 K	0.6901
6.425 K	1.131
7.372 K	1.671
8.352 K	2.37
9.357 K	3.243
10 K	3.899
10.42 K	4.348
11.58 K	5.512
12.87 K	7.134
14.3 K	8.921
15.89 K	11.19
17.68 K	13.76
19.66 K	16.7
20 K	17.2
21.86 K	20.01
24.3 K	23.71
26.97 K	27.69
29.93 K	31.88
30 K	31.97
33.23 K	36.31
36.92 K	40.94
40 K	44.47
41.05 K	45.63
45.65 K	50.63
50 K	54.82
50.77 K	55.5
56.48 K	60.59
57.01 K	60.79

Source: the NIST ThermoML archive (doi:10.1016/j.jct.2014.01.006)
